Columns and labels:
Assay type in all cases: binding
Conditions in all cases: Compound Concentration 10 µM
panel of 442 kinases [1] = target: T1, panel of 442 kinases (Homo sapiens, UniProt Q9NYY3)
T1 construct: purchased KINOMEscan
Source text: (§1) We assessed the selectivity of members of this scaffold using the KINOMEscan methodology across a near comprehensive panel of 442 kinases [[18,27]].

panel of 442 kinases [2] = target: T2, panel of 442 kinases (Homo sapiens, UniProt Q8TDX7)
T2 construct: purchased KINOMEscan
Source text: as §1

panel of 442 kinases [3] = target: T3, panel of 442 kinases (Homo sapiens, UniProt Q9HBH9)
T3 construct: purchased KINOMEscan
Source text: as §1

T2 sequence (Q8TDX7 whole entry): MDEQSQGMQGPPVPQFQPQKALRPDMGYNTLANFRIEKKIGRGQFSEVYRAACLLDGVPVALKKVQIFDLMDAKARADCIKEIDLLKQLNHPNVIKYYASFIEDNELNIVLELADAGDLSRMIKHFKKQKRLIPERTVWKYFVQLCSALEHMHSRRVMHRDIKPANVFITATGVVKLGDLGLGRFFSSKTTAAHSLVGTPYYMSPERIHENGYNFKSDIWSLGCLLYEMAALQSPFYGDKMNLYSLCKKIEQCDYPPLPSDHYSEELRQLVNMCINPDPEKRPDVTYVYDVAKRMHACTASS
T1 sequence (Q9NYY3 whole entry): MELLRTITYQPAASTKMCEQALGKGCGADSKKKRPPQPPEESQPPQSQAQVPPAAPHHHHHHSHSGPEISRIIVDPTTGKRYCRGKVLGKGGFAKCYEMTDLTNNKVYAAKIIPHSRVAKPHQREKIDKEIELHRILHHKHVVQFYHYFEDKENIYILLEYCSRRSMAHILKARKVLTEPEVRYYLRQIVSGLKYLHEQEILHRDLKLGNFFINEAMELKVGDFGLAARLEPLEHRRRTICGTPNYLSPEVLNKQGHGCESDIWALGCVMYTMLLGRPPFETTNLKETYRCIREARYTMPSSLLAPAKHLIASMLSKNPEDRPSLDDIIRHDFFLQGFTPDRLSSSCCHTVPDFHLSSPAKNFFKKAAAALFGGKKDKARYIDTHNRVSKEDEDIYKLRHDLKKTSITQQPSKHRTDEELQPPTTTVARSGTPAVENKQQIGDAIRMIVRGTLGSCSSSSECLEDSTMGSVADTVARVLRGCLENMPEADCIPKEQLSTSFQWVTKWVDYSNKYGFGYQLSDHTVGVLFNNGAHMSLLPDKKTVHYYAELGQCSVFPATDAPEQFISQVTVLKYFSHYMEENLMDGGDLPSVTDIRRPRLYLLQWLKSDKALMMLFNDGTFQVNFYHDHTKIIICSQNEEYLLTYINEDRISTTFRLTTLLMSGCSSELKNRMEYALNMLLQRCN
T3 sequence (Q9HBH9 whole entry): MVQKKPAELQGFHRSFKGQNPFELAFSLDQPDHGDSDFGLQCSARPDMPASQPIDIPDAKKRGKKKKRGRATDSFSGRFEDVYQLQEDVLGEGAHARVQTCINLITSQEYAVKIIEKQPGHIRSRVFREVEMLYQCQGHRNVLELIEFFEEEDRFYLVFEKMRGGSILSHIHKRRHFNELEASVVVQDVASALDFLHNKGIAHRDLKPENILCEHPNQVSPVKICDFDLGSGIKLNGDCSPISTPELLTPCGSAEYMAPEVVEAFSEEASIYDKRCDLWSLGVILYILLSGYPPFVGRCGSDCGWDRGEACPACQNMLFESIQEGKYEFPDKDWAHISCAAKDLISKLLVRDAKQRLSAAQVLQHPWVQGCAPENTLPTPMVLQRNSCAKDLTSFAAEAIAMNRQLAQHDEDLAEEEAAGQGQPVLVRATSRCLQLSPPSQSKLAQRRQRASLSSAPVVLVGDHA

Row | Structure (SMILES) | KINOMEscan: PLK2 (panel of 442 kinases [1]) | KINOMEscan: NEK7 (panel of 442 kinases [2]) | KINOMEscan: MKNK2 (panel of 442 kinases [3])
1 | COc1cc(C(=O)N2CCC(N3CCN(C)CC3)CC2)ccc1Nc1ncc2c(n1)N(C)c1ccccc1C(=O)N2C [15 (LRRK2-IN-1)] | 100 | 100 | 1.2
2 | COc1cc(C(=O)N2CCC(N3CCN(C)CC3)CC2)ccc1Nc1ncc2c(n1)N1CCc3cccc(c31)C(=O)N2C [Compound 24] | 8.8 |  | 8.6
3 | COc1cc(C(=O)N2CCC(N3CCN(C)CC3)CC2)ccc1Nc1ncc2c(n1)N(C1CCCC1)c1ccccc1C(=O)N2C [Compound 25, 11-cyclopentyl-2-((2-methoxy-4-(4-(4-methylpiperazin-1-yl)piperidine-1-carbonyl)phenyl)amino)-5-methyl-5H-benzo[e]pyrimido[5,4-b][1,4]diazepin-6(11H)-one] | 100 | 100 | 100
4 | CCOc1cc(C(=O)N2CCC(N3CCN(C)CC3)CC2)ccc1Nc1ncc2c(n1)N(C1CCCC1)c1ccccc1C(=O)N2C [Compound 26] | 97 | 100 | 100

Reference: publication PMC3914206
